Patent publication US20180360801A1, “NEUROPROTECTIVE COMPOSITIONS AND THEIR USE” (priority 2017, published 2018)

Assay: Blood glucose by glucometer after 4 weeks of treatment
Type: in vivo
Conditions: rats, streptozotocin 55 mg/kg ip, n=12, p<0.05
Method: In this study, we used streptozotocin (55 mg/kg) to induce hyperglycemia. We measured the levels of glucose using standardized glucometer after 4 weeks of treatment. Based on the literature, the current animal model represents severe hyperglycemia.

## CN(N=O)C(=O)N[C@H]1C(O)O[C@H](CO)[C@@H](O)[C@@H]1O (mixture of isomers) [Streptozotocin, streptozotocin]
  increase of levels of glucose as compared to the controls: 445.5%
